Test: xn = mol fraction of the nth substance listed
Settings: 81.5 kPa

CCCC[n+]1ccn(C)c1.N#C[S-] + CCCCC(C)O
x1 = 1
Settings | speed of sound [m/s]
298.15 K | 1762
308.15 K | 1738
318.15 K | 1714
328.15 K | 1691
338.15 K | 1668

CCCCC(C)O (configuration not stated) + CCCC[n+]1ccn(C)c1.N#C[S-]
speed of sound [m/s]
Settings | x2 = 0 | x2 = 0.1011 | x2 = 0.2003 | x2 = 0.2992 | x2 = 0.3988 | x2 = 0.4964 | x2 = 0.6029 | x2 = 0.6993 | x2 = 0.7996 | x2 = 0.8987
288.15 K | 1299 | – | 1397 | 1448 | 1497 | 1549 | 1601 | 1653 | – | 1748
298.15 K | – | 1316 | 1366 | – | 1469 | 1521 | 1574 | 1628 | 1673 | 1724
308.15 K | 1226 | 1283 | 1335 | 1389 | 1441 | 1494 | 1549 | 1603 | – | 1700
318.15 K | 1189 | – | 1304 | – | – | 1471 | 1530 | 1581 | 1632 | 1676
328.15 K | 1153 | – | – | 1331 | 1385 | 1441 | 1498 | 1554 | 1601 | 1653
338.15 K | 1117 | 1183 | – | 1302 | 1357 | – | 1474 | – | 1577 | 1630
